According to the NIST ThermoML archive (doi:10.1016/j.jct.2007.04.005):

Experiment: xn = mol fraction of the nth substance listed
Conditions: 318.15 K, Liquid

CCCCCCCCC [nonane] + C1CCCCC1
Conditions	mass density [kg/m3]
100 kPa, x2 = 0	698.2
100 kPa, x2 = 0.09303	701
100 kPa, x2 = 0.2009	704.8
100 kPa, x2 = 0.3051	708.8
100 kPa, x2 = 0.417	713.5
100 kPa, x2 = 0.512	718
100 kPa, x2 = 0.5996	722.8
100 kPa, x2 = 0.7052	729.3
100 kPa, x2 = 0.7993	736.2
100 kPa, x2 = 0.9039	744.9
101 kPa, x2 = 0	698.48
101 kPa, x2 = 0.1022	701.67
101 kPa, x2 = 0.1548	703.43
101 kPa, x2 = 0.2009	705.04
101 kPa, x2 = 0.2591	707.2
101 kPa, x2 = 0.3306	710.05
101 kPa, x2 = 0.4003	713.04
101 kPa, x2 = 0.4596	715.79
101 kPa, x2 = 0.5321	719.42
101 kPa, x2 = 0.612	723.86
101 kPa, x2 = 0.6649	727.05
101 kPa, x2 = 0.7224	730.84
101 kPa, x2 = 0.8047	736.83
101 kPa, x2 = 0.8686	742.07
101 kPa, x2 = 0.9405	748.72
2130 kPa, x2 = 0	699.9
2130 kPa, x2 = 0.09303	702.7
2130 kPa, x2 = 0.2009	706.5
2130 kPa, x2 = 0.3051	710.6
2130 kPa, x2 = 0.417	715.2
2130 kPa, x2 = 0.512	719.8
2130 kPa, x2 = 0.5996	724.6
2130 kPa, x2 = 0.7052	731.1
2130 kPa, x2 = 0.7993	738
2130 kPa, x2 = 0.9039	746.7
4150 kPa, x2 = 0	701.8
4150 kPa, x2 = 0.09303	704.7
4150 kPa, x2 = 0.2009	708.4
4150 kPa, x2 = 0.3051	712.5
4150 kPa, x2 = 0.417	717.2
4150 kPa, x2 = 0.512	721.7
4150 kPa, x2 = 0.5996	726.6
4150 kPa, x2 = 0.7052	733.1
4150 kPa, x2 = 0.7993	740
4150 kPa, x2 = 0.9039	748.7
6180 kPa, x2 = 0	703.6
6180 kPa, x2 = 0.09303	706.4
6180 kPa, x2 = 0.2009	710.2
6180 kPa, x2 = 0.3051	714.3
6180 kPa, x2 = 0.417	719
6180 kPa, x2 = 0.512	723.6
6180 kPa, x2 = 0.5996	728.4
6180 kPa, x2 = 0.7052	734.9
6180 kPa, x2 = 0.7993	741.8
6180 kPa, x2 = 0.9039	750.6
8210 kPa, x2 = 0	705.3
8210 kPa, x2 = 0.09303	708.2
8210 kPa, x2 = 0.2009	712
8210 kPa, x2 = 0.3051	716.1
8210 kPa, x2 = 0.417	720.7
8210 kPa, x2 = 0.512	725.3
8210 kPa, x2 = 0.5996	730.2
8210 kPa, x2 = 0.7052	736.7
8210 kPa, x2 = 0.7993	743.6
8210 kPa, x2 = 0.9039	752.4
10230 kPa, x2 = 0	707
10230 kPa, x2 = 0.09303	709.9
10230 kPa, x2 = 0.2009	713.7
10230 kPa, x2 = 0.3051	717.8
10230 kPa, x2 = 0.417	722.5
10230 kPa, x2 = 0.512	727
10230 kPa, x2 = 0.5996	731.9
10230 kPa, x2 = 0.7052	738.5
10230 kPa, x2 = 0.7993	745.4
10230 kPa, x2 = 0.9039	754.2
11250 kPa, x2 = 0	707.8
11250 kPa, x2 = 0.09303	710.7
11250 kPa, x2 = 0.2009	714.5
11250 kPa, x2 = 0.3051	718.6
11250 kPa, x2 = 0.417	723.3
11250 kPa, x2 = 0.512	727.9
11250 kPa, x2 = 0.5996	732.8
11250 kPa, x2 = 0.7052	739.4
11250 kPa, x2 = 0.7993	746.3
11250 kPa, x2 = 0.9039	755.1
12260 kPa, x2 = 0	708.6
12260 kPa, x2 = 0.09303	711.6
12260 kPa, x2 = 0.2009	715.4
12260 kPa, x2 = 0.3051	719.5
12260 kPa, x2 = 0.417	724.2
12260 kPa, x2 = 0.512	728.8
12260 kPa, x2 = 0.5996	733.7
12260 kPa, x2 = 0.7052	740.3
12260 kPa, x2 = 0.7993	747.1
12260 kPa, x2 = 0.9039	756
14290 kPa, x2 = 0	710.3
14290 kPa, x2 = 0.09303	713.2
14290 kPa, x2 = 0.2009	717
14290 kPa, x2 = 0.3051	721.1
14290 kPa, x2 = 0.417	725.8
14290 kPa, x2 = 0.512	730.4
14290 kPa, x2 = 0.5996	735.3
14290 kPa, x2 = 0.7052	741.9
14290 kPa, x2 = 0.7993	748.9
14290 kPa, x2 = 0.9039	757.7
16310 kPa, x2 = 0	711.9
16310 kPa, x2 = 0.09303	714.8
16310 kPa, x2 = 0.2009	718.7
16310 kPa, x2 = 0.3051	722.7
16310 kPa, x2 = 0.417	727.5
16310 kPa, x2 = 0.512	732
16310 kPa, x2 = 0.5996	737
16310 kPa, x2 = 0.7052	743.6
16310 kPa, x2 = 0.7993	750.5
16310 kPa, x2 = 0.9039	759.4
18340 kPa, x2 = 0	713.5
18340 kPa, x2 = 0.09303	716.4
18340 kPa, x2 = 0.2009	720.2
18340 kPa, x2 = 0.3051	724.3
18340 kPa, x2 = 0.417	729.1
18340 kPa, x2 = 0.512	733.6
18340 kPa, x2 = 0.5996	738.6
18340 kPa, x2 = 0.7052	745.3
18340 kPa, x2 = 0.7993	752.1
18340 kPa, x2 = 0.9039	761.1
20370 kPa, x2 = 0	715
20370 kPa, x2 = 0.09303	717.9
20370 kPa, x2 = 0.2009	721.8
20370 kPa, x2 = 0.3051	725.9
20370 kPa, x2 = 0.417	730.6
20370 kPa, x2 = 0.512	735.2
20370 kPa, x2 = 0.5996	740.2
20370 kPa, x2 = 0.7052	746.9
20370 kPa, x2 = 0.7993	753.7
20370 kPa, x2 = 0.9039	762.7
22390 kPa, x2 = 0	716.5
22390 kPa, x2 = 0.09303	719.4
22390 kPa, x2 = 0.2009	723.3
22390 kPa, x2 = 0.3051	727.4
22390 kPa, x2 = 0.417	732.2
22390 kPa, x2 = 0.512	736.7
22390 kPa, x2 = 0.5996	741.8
22390 kPa, x2 = 0.7052	748.4
22390 kPa, x2 = 0.7993	755.3
22390 kPa, x2 = 0.9039	764.3
24420 kPa, x2 = 0	717.9
24420 kPa, x2 = 0.09303	720.8
24420 kPa, x2 = 0.2009	724.8
24420 kPa, x2 = 0.3051	728.8
24420 kPa, x2 = 0.417	733.6
24420 kPa, x2 = 0.512	738.2
24420 kPa, x2 = 0.5996	743.3
24420 kPa, x2 = 0.7052	749.9
24420 kPa, x2 = 0.7993	756.8
24420 kPa, x2 = 0.9039	765.8
26450 kPa, x2 = 0	719.4
26450 kPa, x2 = 0.09303	722.3
26450 kPa, x2 = 0.2009	726.2
26450 kPa, x2 = 0.3051	730.3
26450 kPa, x2 = 0.417	735.1
26450 kPa, x2 = 0.512	739.7
26450 kPa, x2 = 0.5996	744.8
26450 kPa, x2 = 0.7052	751.4
26450 kPa, x2 = 0.7993	758.3
26450 kPa, x2 = 0.9039	767.4
28470 kPa, x2 = 0	720.8
28470 kPa, x2 = 0.09303	723.6
28470 kPa, x2 = 0.2009	727.6
28470 kPa, x2 = 0.3051	731.7
28470 kPa, x2 = 0.417	736.5
28470 kPa, x2 = 0.512	741.1
28470 kPa, x2 = 0.5996	746.2
28470 kPa, x2 = 0.7052	752.9
28470 kPa, x2 = 0.7993	759.8
28470 kPa, x2 = 0.9039	768.9
29490 kPa, x2 = 0	721.4
29490 kPa, x2 = 0.09303	724.3
29490 kPa, x2 = 0.2009	728.3
29490 kPa, x2 = 0.3051	732.4
29490 kPa, x2 = 0.417	737.2
29490 kPa, x2 = 0.512	741.8
29490 kPa, x2 = 0.5996	746.9
29490 kPa, x2 = 0.7052	753.6
29490 kPa, x2 = 0.7993	760.5
29490 kPa, x2 = 0.9039	769.6
30500 kPa, x2 = 0	722.1
30500 kPa, x2 = 0.09303	725
30500 kPa, x2 = 0.2009	729
30500 kPa, x2 = 0.3051	733.1
30500 kPa, x2 = 0.417	737.9
30500 kPa, x2 = 0.512	742.5
30500 kPa, x2 = 0.5996	747.6
30500 kPa, x2 = 0.7052	754.3
30500 kPa, x2 = 0.7993	761.2
30500 kPa, x2 = 0.9039	770.3
32530 kPa, x2 = 0	723.4
32530 kPa, x2 = 0.09303	726.4
32530 kPa, x2 = 0.2009	730.4
32530 kPa, x2 = 0.3051	734.4
32530 kPa, x2 = 0.417	739.3
32530 kPa, x2 = 0.512	743.8
32530 kPa, x2 = 0.5996	749
32530 kPa, x2 = 0.7052	755.7
32530 kPa, x2 = 0.7993	762.6
32530 kPa, x2 = 0.9039	771.7
34550 kPa, x2 = 0	724.8
34550 kPa, x2 = 0.09303	727.7
34550 kPa, x2 = 0.2009	731.8
34550 kPa, x2 = 0.3051	735.8
34550 kPa, x2 = 0.417	740.6
34550 kPa, x2 = 0.512	745.2
34550 kPa, x2 = 0.5996	750.4
34550 kPa, x2 = 0.7052	757.1
34550 kPa, x2 = 0.7993	764
34550 kPa, x2 = 0.9039	773.2
36580 kPa, x2 = 0	726.1
36580 kPa, x2 = 0.09303	729
36580 kPa, x2 = 0.2009	733.1
36580 kPa, x2 = 0.3051	737.1
36580 kPa, x2 = 0.417	742
36580 kPa, x2 = 0.512	746.6
36580 kPa, x2 = 0.5996	751.7
36580 kPa, x2 = 0.7052	758.5
36580 kPa, x2 = 0.7993	765.4
36580 kPa, x2 = 0.9039	774.5
38600 kPa, x2 = 0	727.5
38600 kPa, x2 = 0.09303	730.4
38600 kPa, x2 = 0.2009	734.5
38600 kPa, x2 = 0.3051	738.5
38600 kPa, x2 = 0.417	743.3
38600 kPa, x2 = 0.512	748
38600 kPa, x2 = 0.5996	753.1
38600 kPa, x2 = 0.7052	759.9
38600 kPa, x2 = 0.7993	766.8
38600 kPa, x2 = 0.9039	776
39620 kPa, x2 = 0	728.1
39620 kPa, x2 = 0.09303	731
39620 kPa, x2 = 0.2009	735.1
39620 kPa, x2 = 0.3051	739.1
39620 kPa, x2 = 0.417	744
39620 kPa, x2 = 0.512	748.6
39620 kPa, x2 = 0.5996	753.8
39620 kPa, x2 = 0.7052	760.6
39620 kPa, x2 = 0.7993	767.5
39620 kPa, x2 = 0.9039	776.7
